Experimental data taken from US7282593B2, “Withanamide and withanolide compositions and method of use thereof” (Board of Trustees of Michigan State University, priority 2003, dated 2007).

Each compound was assayed on lipid peroxidation in large unilamellar vesicles (LUVs) (assay: Inhibition of lipid peroxidation in large unilamellar vesicles (liposome) model system). Details: at 0.5 μg/mL; vs DMSO control at 21 min.
Description: Fluorescence intensity was monitored for 21 minutes at intervals of 3 minutes. The percentage of inhibition represented was calculated with respect to DMSO control at 21 min. The concentrations of compounds tested were 1-3, 5 and 9 at 1 μg/mL; 4, 6-8 at 0.5 μg/mL; 15 at 100 μg/mL; 16 at 50 μg/mL; 17 at 10 μg/mL. Commercial antioxidants BHA, BHT and TBHQ were tested at 1 μg/mL. Data represented indicates the mean ± one standard deviation (n=2).
Compounds tested were 10 and 13 at 100 μg/mL; 12 and 11 were at 10 and 50 μg/mL, respectively. Data represented indicates the mean ± one standard deviation (n=2).
The liposome suspension was prepared by mixing the phospholipid 1-stearoyl-2-linoleoyl-sn-glycero-3-phosphocoline (SLPC) and a fluorescence probe [3-[p-(6-phenyl)-1,3,5-hexatrienylph-enylpropionic acid (DPH-PA). The final assay volume was 2 mL and consisted HEPES (100 μL), 1M NaCl (200 μL), N2-sparged water (1.64 ml), test sample or DMSO (20 μL) and liposome suspension (20 μL). The peroxidation was initiated by the addition of 20 μl of FeCl2. […] The fluorescence was monitored at 0, 1, 3 and every 3 min up to 21 min using a Turner Model 450 Digital fluorometer. The decrease in fluorescence intensity over the time (21 min) indicated the rate of peroxidation. The percentage of lipid peroxidation was calculated with respect to DMSO solvent control. Stock solutions of the samples were prepared at 100 μg/ml and diluted further for the assay.

| Compound | inhibition of lipid peroxidation |
| --- | --- |
| Withanamide H [Compound 8] | 90% |
| Withanamide G [Compound 7] | 82% |
| Withanamide F [Compound 6] | 85% |

Same assay, conditions: at 1 μg/mL; vs DMSO control at 21 min

| Compound | inhibition of lipid peroxidation |
| --- | --- |
| Withanamide E [Compound 5] | 81% |
| Withanamide C [Compound 3] | 79% |
| Cc1cc(C(C)(C)C)c(O)c(C(C)(C)C)c1 [BHT, butylated hydroxytoluene, reference compound] | 81% |
| Withanamide I [Compound 9] | 86% |
| Withanamide B [Compound 2] | 93% |
| Withanamide A [Compound 1] | 98% |
| COc1ccc(O)c(C(C)(C)C)c1 [BHA, butylated hydroxyanisole, reference compound] | 80% |
| CC(C)(C)c1cc(O)ccc1O [TBHQ, tert-butylhydroquinone, reference compound] | 85% |
| Withanamide D [Compound 4] | 94% |

Same assay, conditions: at 10 μg/mL; vs DMSO control at 21 min

| Compound | inhibition of lipid peroxidation |
| --- | --- |
| CC1=C(C)C(=O)O[C@@H]([C@@H](C)[C@H]2CC[C@H]3[C@@H]4CC=C5C[C@@H](O[C@@H]6O[C@H](CO[C@@H]7O[C@H](CO)[C@@H](O)[C@H](O)[C@H]7O)[C@@H](O)[C@H](O)[C@H]6O)C[C@H](O)[C@]5(C)[C@H]4CC[C@]23C)C1 [Compound 12, Withanoside V] | 82% |
| Cl.NCCc1c[nH]c2ccc(O)cc12 [Compound 16, serotonine, reference compound] | 44% |

Same assay, conditions: at 50 μg/mL; vs DMSO control at 21 min

| Compound | inhibition of lipid peroxidation |
| --- | --- |
| CC1=C(C)C(=O)O[C@@H]([C@](C)(O)[C@H]2CC[C@H]3[C@@H]4CC=C5C[C@@H](O[C@@H]6O[C@H](CO[C@@H]7O[C@H](CO)[C@@H](O)[C@H](O)[C@H]7O)[C@@H](O)[C@H](O)[C@H]6O)C[C@H](O)[C@]5(C)[C@H]4CC[C@]23C)C1 [Compound 11, withanoside VI] | 86% |
| COc1ccc2[nH]cc(CCN)c2c1 [Compound 15, 5-methoxyserotonine, reference compound] | 30% |

Same assay, conditions: at 100 μg/mL; vs DMSO control at 21 min

| Compound | inhibition of lipid peroxidation |
| --- | --- |
| CC1=C(CO)C(=O)O[C@@H]([C@@H](C)[C@H]2CC[C@H]3[C@@H]4CC=C5C[C@@H](O[C@@H]6O[C@H](CO[C@@H]7O[C@H](CO)[C@@H](O)[C@H](O)[C@H]7O)[C@@H](O)[C@H](O)[C@H]6O)C[C@H](O)[C@]5(C)[C@H]4CC[C@]23C)C1 [Compound 13, withanoside IV] | 25% |
| CC1CC([C@](C)(O)C2CCC3C4CC=C5C[C@@H](OC6OC(COC7OC(CO)C(O)C(O)C7O)C(O)C(O)C6O)C[C@H](O)C5(C)C4CCC32C)OC(=O)C1C (stereo partly drawn) [Compound 10, 23,24-Dihydrowithanolide VI] | 84% |
| NCCc1c[nH]c2ccccc12 [Compound 14, tryptamine, reference compound] | 40% |

Same assay, conditions: at 10 ppm

| Compound | inhibition of lipid peroxidation |
| --- | --- |
| CC1=C(C)C(=O)O[C@@H]([C@@H](C)[C@H]2CC[C@H]3[C@@H]4CC=C5C[C@@H](O[C@@H]6O[C@H](CO[C@@H]7O[C@H](CO)[C@@H](O)[C@H](O)[C@H]7O)[C@@H](O)[C@H](O)[C@H]6O)C[C@H](O)[C@]5(C)[C@H]4CC[C@]23C)C1 [Compound 12, Withanoside V] | 82.5% |

Same assay, conditions: at 50 ppm

| Compound | lipid peroxidation inhibitory activity |
| --- | --- |
| CC1=C(C)C(=O)O[C@@H]([C@](C)(O)[C@H]2CC[C@H]3[C@@H]4CC=C5C[C@@H](O[C@@H]6O[C@H](CO[C@@H]7O[C@H](CO)[C@@H](O)[C@H](O)[C@H]7O)[C@@H](O)[C@H](O)[C@H]6O)C[C@H](O)[C@]5(C)[C@H]4CC[C@]23C)C1 [Compound 11, withanoside VI] | 86% |
